Experimental data: PubChem BioAssay AID248 (DTP/NCI, 2004)
“And” between values parts separate entries of the source, which are not always exact repeats. Equal entries are not always repeated. Inconclusive results and toxic doses are left out. No stated cut-off is given here; in the data, active means T/C of 150% or more; inactive means T/C below 125%.

Test system: L1210 leukemia ip in BDF1 mice, survival T/C
Assay: NCI In Vivo Anticancer Drug Screen. Data for tumor model L1210 Leukemia (intraperitoneal) in B6D2F1 (BDF1) mice
Conditions: endpoint: mean survival time, higher = longer survival
Outline: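 Each compound was tested against a transplantable tumor grown in mice. The endpoint was survival, with treated animals benchmarked against vehicle controls as a simple ratio.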

[1] = dose: 100.0 mg/kg/injection, schedule: Q01DX001 (ip), vehicle: saline
[2] = dose: 200.0 mg/kg/injection, schedule: Q01DX001 (ip), vehicle: saline
[3] = dose: 400.0 mg/kg/injection, schedule: Q01DX001 (ip), vehicle: saline
[4] = dose: 100.0 mg/kg/injection, schedule: Q01DX009 (ip), vehicle: saline with Tween-80
[5] = dose: 100.0 mg/kg/injection, schedule: Q04DX003 (ip), vehicle: saline with Tween-80
[6] = dose: 200.0 mg/kg/injection, schedule: Q01DX009 (ip), vehicle: saline with Tween-80
[7] = dose: 200.0 mg/kg/injection, schedule: Q04DX003 (ip), vehicle: saline with Tween-80
[8] = dose: 400.0 mg/kg/injection, schedule: Q01DX009 (ip), vehicle: saline with Tween-80
[9] = dose: 400.0 mg/kg/injection, schedule: Q04DX003 (ip), vehicle: saline with Tween-80
[10] = dose: 50.0 mg/kg/injection, schedule: Q01DX009 (ip), vehicle: saline with Tween-80
[11] = dose: 25.0 mg/kg/injection, schedule: Q01DX009 (ip), vehicle: saline with Tween-80
[12] = dose: 100.0 mg/kg/injection, schedule: Q04DX002 (ip), vehicle: saline

Measured: T/C

CCOC(=O)C(CCc1ccncc1)c1ccccc1 (configuration not stated)
inactive: dose: 111.0 mg/kg/injection, schedule: Q01DX Z (ip), vehicle: methylcellulose (MC) 94 % of control | dose: 166.0 mg/kg/injection, schedule: Q01DX Z (ip), vehicle: methylcellulose (MC) 102 % of control | dose: 250.0 mg/kg/injection, schedule: Q01DX Z (ip), vehicle: methylcellulose (MC) 96 % of control

O=c1cc(Oc2ccccc2)[nH]c(=O)[nH]1
inactive: dose: 65.0 mg/kg/injection, schedule: Q01DX001 (ip), vehicle: Klucel (hydroxypropylcellulose) (HPC) 112 % of control | dose: 130.0 mg/kg/injection, schedule: Q01DX001 (ip), vehicle: Klucel (hydroxypropylcellulose) (HPC) 93 % of control | dose: 260.0 mg/kg/injection, schedule: Q01DX001 (ip), vehicle: Klucel (hydroxypropylcellulose) (HPC) 93 % of control

CCCC/C(C)=N/Nc1ccc([N+](=O)[O-])cc1[N+](=O)[O-]
inactive: dose: 12.5 mg/kg/injection, schedule: Q04DX002 (ip), vehicle: saline with Tween-80 98 % of control | dose: 25.0 mg/kg/injection, schedule: Q04DX002 (ip), vehicle: saline with Tween-80 106 % of control | dose: 50.0 mg/kg/injection, schedule: Q04DX002 (ip), vehicle: saline with Tween-80 98 % of control

O=C(O)C1CCCCN1O (configuration not stated)
inactive: [1] 102 % of control | [2] 104 % of control | [3] 104 % of control

O=c1[nH]c(C(F)(F)F)nc2c1nc1n2CCC1
inactive: [4] 103 % of control | [5] 91 % of control | [6] 102 % of control | [7] 96 % of control | [8] 97 % of control | [9] 86 % of control

CC(=O)c1ccc(CC2CCC2)cc1
inactive: dose: 75.0 mg/kg/injection, schedule: Q01DX009 (ip), vehicle: Klucel (hydroxypropylcellulose) (HPC) 97 % of control | dose: 150.0 mg/kg/injection, schedule: Q01DX009 (ip), vehicle: Klucel (hydroxypropylcellulose) (HPC) 112 % of control | dose: 300.0 mg/kg/injection, schedule: Q01DX009 (ip), vehicle: Klucel (hydroxypropylcellulose) (HPC) 110 % of control

O=C(O)c1ccc(Cl)cc1F
inactive: dose: 100.0 mg/kg/injection, schedule: Q04DX002 (ip), vehicle: Klucel (hydroxypropylcellulose) (HPC) 97 % of control | dose: 200.0 mg/kg/injection, schedule: Q04DX002 (ip), vehicle: Klucel (hydroxypropylcellulose) (HPC) 108 % of control | dose: 400.0 mg/kg/injection, schedule: Q04DX002 (ip), vehicle: Klucel (hydroxypropylcellulose) (HPC) 97 % of control

O=C(CCl)OC1CCCCC1
inactive: [4] 105 % of control | [6] 97 % of control

CCCCC=C1CC(C)CC(C)C1 (configuration not stated)
inactive: [10] 93 % of control | [4] 93 % of control

CCCOC(C[N+](=O)[O-])C(Cl)(Cl)Cl (configuration not stated)
inactive: dose: 6.25 mg/kg/injection, schedule: Q01DX009 (ip), vehicle: saline with Tween-80 91 % of control | dose: 12.5 mg/kg/injection, schedule: Q01DX009 (ip), vehicle: saline with Tween-80 96 % of control | [11] 101 % of control | dose: 25.0 mg/kg/injection, schedule: Q04DX003 (ip), vehicle: saline with Tween-80 104 % of control

Cc1ccc(C(C)C)cc1NC(=O)c1c(Cl)c(Cl)c(Cl)c(Cl)c1C(=O)O
inactive: dose: 25.0 mg/kg/injection, schedule: Q01DX009 (ip), vehicle: Klucel (hydroxypropylcellulose) (HPC) 108 % of control | dose: 50.0 mg/kg/injection, schedule: Q01DX009 (ip), vehicle: Klucel (hydroxypropylcellulose) (HPC) 91 % of control | dose: 100.0 mg/kg/injection, schedule: Q01DX009 (ip), vehicle: Klucel (hydroxypropylcellulose) (HPC) 103 % of control and 90 % of control

CSc1sc2ccc(S(=O)(=O)O)cc2[n+]1C
inactive: [5] 97 % of control | [7] 94 % of control

CC/C=C(\C)C1(CC)C(=O)N=C(N)NC1=O (configuration not stated)
inactive: dose: 150.0 mg/kg/injection, schedule: Q01DX001 (ip), vehicle: saline 105 % of control

O=C(O)c1ccccc1-c1ccccc1C(=O)O
inactive: [5] 111 % of control | [7] 97 % of control | [9] 94 % of control

CC1=CC(O)Nc2c(CBr)cccc21 (configuration not stated)
inactive: [11] 97 % of control | [10] 103 % of control | [1] 107 % of control | dose: 100.0 mg/kg/injection, schedule: Q04DX003 (ip), vehicle: saline 101 % of control | [2] 95 % of control | [3] 91 % of control

COc1c(C)c(C)c(OC)c(Br)c1C
inactive: dose: 100.0 mg/kg/injection, schedule: Q01DX001 (ip), vehicle: saline with Tween-80 98 % of control | [4] 95 % of control | dose: 200.0 mg/kg/injection, schedule: Q01DX001 (ip), vehicle: saline with Tween-80 102 % of control | [6] 98 % of control | dose: 400.0 mg/kg/injection, schedule: Q01DX001 (ip), vehicle: saline with Tween-80 98 % of control | [8] 106 % of control

Nc1ccc(CCC(=O)NC(CCC(=O)O)C(=O)O)cc1 (configuration not stated)
inactive: dose: 100.0 mg/kg/injection, schedule: Q01DX009 (ip), vehicle: saline 102 % of control | [12] 98 % of control | dose: 200.0 mg/kg/injection, schedule: Q01DX009 (ip), vehicle: saline 108 % of control | dose: 200.0 mg/kg/injection, schedule: Q04DX002 (ip), vehicle: saline 105 % of control | dose: 400.0 mg/kg/injection, schedule: Q01DX009 (ip), vehicle: saline 96 % of control | dose: 400.0 mg/kg/injection, schedule: Q04DX002 (ip), vehicle: saline 94 % of control

CCCCCCCc1ccc2cccc3c2c1C(=O)c1ccccc1-3
inactive: dose: 100.0 mg/kg/injection, schedule: Q04DX003 (ip), vehicle: Klucel (hydroxypropylcellulose) (HPC) 92 % of control | dose: 200.0 mg/kg/injection, schedule: Q04DX003 (ip), vehicle: Klucel (hydroxypropylcellulose) (HPC) 92 % of control | dose: 400.0 mg/kg/injection, schedule: Q04DX003 (ip), vehicle: Klucel (hydroxypropylcellulose) (HPC) 94 % of control

CC(C)(C)C1CCS(=O)(=O)CC1.[Cl][Hg][Cl]
inactive: dose: 0.25 mg/kg/injection, schedule: Q01DX009 (ip), vehicle: saline 97 % of control | dose: 0.5 mg/kg/injection, schedule: Q01DX009 (ip), vehicle: saline 98 % of control | dose: 1.0 mg/kg/injection, schedule: Q01DX009 (ip), vehicle: saline 94 % of control

O=C1C2C3CCC(O3)C2C(=O)N1CCOS(=O)(=O)c1ccc(Cl)cc1 (configuration not stated)
inactive: dose: 75.0 mg/kg/injection, schedule: Q01DX009 (ip), vehicle: carboxymethylcellulose (CMC) 93 % of control | dose: 100.0 mg/kg/injection, schedule: Q04DX003 (ip), vehicle: carboxymethylcellulose (CMC) 100 % of control | dose: 150.0 mg/kg/injection, schedule: Q01DX009 (ip), vehicle: carboxymethylcellulose (CMC) 94 % of control | dose: 200.0 mg/kg/injection, schedule: Q04DX003 (ip), vehicle: carboxymethylcellulose (CMC) 102 % of control | dose: 300.0 mg/kg/injection, schedule: Q01DX009 (ip), vehicle: carboxymethylcellulose (CMC) 91 % of control | dose: 400.0 mg/kg/injection, schedule: Q04DX003 (ip), vehicle: carboxymethylcellulose (CMC) 96 % of control

CCOC(=O)NCCO
inactive: [1] 103 % of control | [2] 95 % of control | [3] 97 % of control

CC(=O)CCC(C#N)c1ccccc1 (configuration not stated)
inactive: dose: 25.0 mg/kg/injection, schedule: Q04DX002 (ip), vehicle: saline 104 % of control | dose: 50.0 mg/kg/injection, schedule: Q04DX002 (ip), vehicle: saline 107 % of control | [12] 93 % of control and 111 % of control
